Results on six compounds are retold here after publication PMC7215714.

One data set has as its system SH-SY5Y cells. The arrangement: method as in PMID 32295288. The following applies: cited from earlier work.
Data set [1] deals with caspases 3 and 9 in SH-SY5Y cells. Nature of the data set: Western blotting of cleaved caspase 3 and 9. The class given is cell-based, human. The following applies: 2000 µM, 6 h, both differentiated and undifferentiated SH-SY5Y cells. How it is done: Amiodarone 50 μM and MDMA 1000 μM were used as negative controls. After treatment, cells were washed twice with cold PBS buffer (pH 7.4) and incubated with 70 μL of cell lysis buffer (radioimmunoprecipitation assay (RIPA) buffer supplemented with complete protease inhibitor (Roche Diagnostics, Mannheim, Germany)) for 15 min on ice. Then, the cell lysates were collected into Eppendorf tubes and centrifuged at 1600 g for 20 min. […] The protein extracts (18 μg per lane) were loaded, separated by SDS/PAGE using 4–12% NuPAGE Bis-Tris gels (Invitrogen, Basel, Switzerland), and then transferred to nitrocellulose membranes by the Trans-Blot Turbo Blotting System (Bio-Rad, Cressier, Switzerland). […] Protein expression was quantified using the Fusion Pulse TS device (Vilber Lourmat, Oberschwaben, Germany).

The test system of data set [2] is mitochondria obtained from the hippocampus, cortex, and cerebellum of rats. The following applies: cited from earlier work.
In the next data set the test system is C2C12 cells. Set-up: method as in PMID 30925718. Particulars: C2C12 mouse skeletal muscle cell line; cited from earlier work.
For data set [3] the following is noted: cited from earlier work.

In the case of `CNC(C)C(=O)c1ccc(Cl)cc1` (stereo not shown) [4-CMC, 4-chloromethcathinone], the Effect on autophagy entry in the data set with SH-SY5Y cells is given as “stimulates autophagy”. Besides, in data set [1], the “Expression of cleaved caspase 9” value is listed as “increased the expression of cleaved caspase 9”.
As to `CNC(C)C(=O)c1ccc(C)cc1` (stereo not shown) [4-MMC, 4-methylmethcathinone], the “Effect on mitochondrial ROS levels and outer mitochondrial membrane” value in data set [2] is “increases mitochondrial ROS levels and damages the outer mitochondrial membrane”.
`CNC(C)Cc1ccc2c(c1)OCO2` (stereo not shown) [MDMA, 3,4-methylenedioxymethamphetamine]: the “Electron transport chain complexes with reduced activity” value with C2C12 cells was “reduced the activity of complexes I and III”.
With `CC(N)Cc1ccccc1` (stereo not shown) [amphetamine, Amphetamine], in data set [3], the “Plasma concentrations reached after a pharmacological dose” value is reported as “low micromolar range”.
For `CCCC(C(=O)c1ccc2ccccc2c1)N1CCCC1` (stereo not shown) [naphyrone], the “Electron transport chain complexes with reduced activity” value in the data set with C2C12 cells is recorded as “complex II”.
As for `CCCC(C(=O)c1ccccc1)N1CCCC1` (stereo not drawn) [α-PVP, α-pyrrolidinopentiophenone], in the data set with C2C12 cells, the “Electron transport chain complexes with reduced activity” value is “complex I”.
